The values below come from patent US20050289663A1, “Method of constructing orchid haploid by treating unfertilized orchid flower with auxin and method of growing orchid” (SAPPORO BREWERIES LIMITED, priority 2002, published 2005).

The subject of one test is Zygopetalum. To be noted: given to stigma of Zygopetalum; cited from earlier work.
For test [1], the system named is Bletilla. Brigantes “H5-11”. As to the kind of experiment: Auxin treatment of unfertilized orchid flowers: parthenogenetic seed formation, germination and ploidy check (flow cytometry, chromosome count). Type of test: in vivo. As to the method:
In the first embodiment, Bletilla. Brigantes “H5-11” was used. The supplied testing plants were grown in the conventional method. The blooming was affirmed, pollens were removed and a treatment of dropping of 10 micro liter was performed with the warmed lanolin paste which contains 2% of α-naphthaleneacetic acid at column using the syringe. Since two or more flowers might exist in the same inflorescence, the above-mentioned treatment was performed about for each one repeatedly five or more times. After individuals in which its ovary got fat are ripened completely (6 to 7 months after the treatment), then they were obtained, they were sterilized their surface for 5 minutes with 0.5% of sodium hydrochlorite solution, planted them on a medium in germfree container, and the germination was forced. After planting, when the number of planted seeds and the number of seed with embryo were observed, 11 seeds with embryo were observed out of 7000 of the planted total number of seeds. […] After plants originating in auxin treatment grew in the suitable size for sampling (1 to 2 months after germination), DNA contents of these plants originating in auxin treatment were measured by flow cytometry, then chromosomes were observed simultaneously and the number of chromosomes was investigated. The investigation was done by obtaining new leaf of seedling, plants treated with α-naphthaleneacetic acid (NAA) of the present invention were investigated and also plants originating in self-pollination were investigated as a comparison. FIG. 2 is views showing results of analysis based on flow cytometry. FIG. 3 is views showing observation results of chromosomes under a microscope.
Background: In flow cytometry, cells or beads pass a laser one at a time.

`O=C(O)Cc1cccc2ccccc12` [α-naphthaleneacetic acid]: the induction of parthenogenesis entry with Zygopetalum was “parthenogenesis has been induced”. In addition, the “number of chromosomes of the plant originating in auxin treatment” value in test [1] (1 to 2 months after germination, microscope, 32 chromosomes for Bletilla Bringantes) is 16. Besides, in test [1] (1 to 2 months after germination, new leaf of seedling), the “DNA amount by flow cytometry: peak position versus plant originating in self-pollination” value is on record as “half ploidy level”. For the same compound, the “buds of plants originating in auxin treatment observed in the seeds with embryo” value in test [1] (2 weeks after planting of seeds, from the 11 seeds with embryo) was found to be 8. Besides, in test [1] (5 to 6 months after germination), the “DNA contents by flow cytometry: peak position versus plants originating in self-pollination” value is given as “almost same position”. For the same compound, in test [1] (out of 7000 of the planted total number of seeds, 10 micro liter lanolin paste containing 2% α-naphthaleneacetic acid dropped at column of unfertilized flower), the “number of seeds with embryo” value worked out at 11.
